The source of these data is patent US8124637B2, “Anthra [1, 2-d]imidazole-6,11-dione derivatives, preparation method and application thereof” (National Defense Medical Center, priority 2010, dated 2012).

In the assay the target is T1, telomerase (total cell lysates of lung cancer cell line H1299) (Homo sapiens, UniProt O14746).
T1 construct: As a source of telomerase, the total cell lysates derived from lung cancer cell line H1299 cells were used; endogenous in cells; host or cells: H1299 lung cancer cells (total cell lysate)
The assay is described as follows: Telomere repeat amplification protocol (TRAP) assay. The class given is biochemical. The following applies: preliminary screening at 10 μM, gel. As to the method:
Telomerase activity was detected by a modified version of the general TRAP protocol. Telomerase products were resolved by 10% polyacrylamide gel electrophoresis and visualized by staining with SYBER Green. As a source of telomerase, the total cell lysates derived from lung cancer cell line H1299 cells were used. Protein concentration of the lysates was assayed using Bio-Rad protein assay kit using BSA standards.
In the FIGS. 3A, 3B and FIG. 4, a positive control group (P) used water that had been sterilized three times in the assay; while a negative control group (N) used RNase A (CLONTECH) (5 μL, 0.1 mg/mL) in the assay.
In the positive control group (P), due to the absence of inhibitor, the telomerase could extend the telomere, such that some longer telomere fragments could be observed; while there was not observed in the negative control group (N). In the result of TRAP assay (FIG. 3A to 3B), compounds with a concentration of 10 μM was used as the preliminary screening. In the gel, standard compound A was 1,2-diaminoanthraquinone, D was doxorubicin, and M was mitoxantrone.

T1 sequence (O14746 whole entry): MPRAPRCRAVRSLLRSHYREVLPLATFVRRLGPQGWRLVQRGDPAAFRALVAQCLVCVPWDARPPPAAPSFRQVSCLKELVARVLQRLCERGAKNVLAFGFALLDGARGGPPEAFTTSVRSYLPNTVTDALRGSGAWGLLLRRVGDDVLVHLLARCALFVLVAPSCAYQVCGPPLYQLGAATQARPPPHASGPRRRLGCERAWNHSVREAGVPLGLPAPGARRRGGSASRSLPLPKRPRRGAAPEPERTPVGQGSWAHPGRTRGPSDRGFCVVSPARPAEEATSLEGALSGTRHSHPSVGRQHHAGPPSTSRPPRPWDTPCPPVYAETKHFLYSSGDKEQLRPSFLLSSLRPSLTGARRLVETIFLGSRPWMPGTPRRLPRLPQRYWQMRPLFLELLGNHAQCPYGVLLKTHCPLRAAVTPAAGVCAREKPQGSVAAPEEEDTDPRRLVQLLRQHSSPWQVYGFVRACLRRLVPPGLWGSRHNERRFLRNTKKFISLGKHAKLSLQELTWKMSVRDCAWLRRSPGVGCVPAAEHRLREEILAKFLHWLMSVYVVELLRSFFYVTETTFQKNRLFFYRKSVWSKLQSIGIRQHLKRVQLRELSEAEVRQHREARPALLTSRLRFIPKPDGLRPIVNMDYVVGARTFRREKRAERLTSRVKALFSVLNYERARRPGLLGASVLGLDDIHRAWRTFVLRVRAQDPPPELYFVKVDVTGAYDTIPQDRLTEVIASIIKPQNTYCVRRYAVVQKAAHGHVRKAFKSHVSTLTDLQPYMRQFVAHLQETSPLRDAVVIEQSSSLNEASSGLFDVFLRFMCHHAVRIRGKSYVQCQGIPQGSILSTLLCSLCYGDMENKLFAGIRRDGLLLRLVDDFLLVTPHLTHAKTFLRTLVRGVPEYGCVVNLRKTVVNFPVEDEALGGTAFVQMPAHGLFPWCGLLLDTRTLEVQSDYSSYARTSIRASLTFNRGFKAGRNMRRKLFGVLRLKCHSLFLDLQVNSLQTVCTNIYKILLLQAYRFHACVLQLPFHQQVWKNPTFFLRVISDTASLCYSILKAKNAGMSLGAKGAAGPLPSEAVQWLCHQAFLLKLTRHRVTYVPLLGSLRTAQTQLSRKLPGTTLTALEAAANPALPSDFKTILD
T1 sequence (O60832 whole entry partner): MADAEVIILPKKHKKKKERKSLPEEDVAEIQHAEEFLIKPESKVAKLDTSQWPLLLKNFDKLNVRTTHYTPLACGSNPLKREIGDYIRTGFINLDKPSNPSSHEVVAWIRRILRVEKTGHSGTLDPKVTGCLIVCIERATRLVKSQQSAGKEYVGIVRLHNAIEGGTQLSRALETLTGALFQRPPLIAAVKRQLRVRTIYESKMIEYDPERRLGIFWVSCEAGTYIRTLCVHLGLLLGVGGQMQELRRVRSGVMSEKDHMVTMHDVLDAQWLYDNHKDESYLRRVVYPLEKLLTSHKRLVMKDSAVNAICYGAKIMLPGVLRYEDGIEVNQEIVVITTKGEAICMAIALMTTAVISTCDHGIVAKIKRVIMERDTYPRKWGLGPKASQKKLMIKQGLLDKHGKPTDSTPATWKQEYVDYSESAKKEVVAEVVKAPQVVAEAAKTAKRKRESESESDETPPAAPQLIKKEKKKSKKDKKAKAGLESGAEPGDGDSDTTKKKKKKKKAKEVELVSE
T1 sequence (Q9NX24 whole entry partner): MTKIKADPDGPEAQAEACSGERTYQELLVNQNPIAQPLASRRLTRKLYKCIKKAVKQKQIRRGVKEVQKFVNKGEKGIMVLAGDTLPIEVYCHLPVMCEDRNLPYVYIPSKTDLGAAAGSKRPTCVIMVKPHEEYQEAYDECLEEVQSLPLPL
T1 sequence (Q9NPE3 whole entry partner): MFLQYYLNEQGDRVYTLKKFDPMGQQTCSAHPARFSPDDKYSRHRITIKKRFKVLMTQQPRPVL
T1 sequence (Q9NY12 whole entry partner): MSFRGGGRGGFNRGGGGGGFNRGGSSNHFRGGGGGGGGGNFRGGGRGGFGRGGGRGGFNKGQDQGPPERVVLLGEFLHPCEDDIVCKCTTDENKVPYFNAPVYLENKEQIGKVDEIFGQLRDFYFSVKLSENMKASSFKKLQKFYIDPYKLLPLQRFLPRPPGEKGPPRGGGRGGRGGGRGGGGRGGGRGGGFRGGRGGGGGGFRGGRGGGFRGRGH

As to `CN1CCN(Cc2nc3ccc4c(c3[nH]2)C(=O)c2ccccc2C4=O)CC1` [CL24, 2-((4-methylpiperazin-1-yl)methyl)-1H-anthra[1,2-d]imidazole-6,11-dione], the “inhibition effect/activity of telomerase (TRAP)” value is reported as “more significant inhibition effect/activity of telomerase”.
